Experimental data: ChEMBL document CHEMBL1148195, “Chemical investigation of predator-deterred macroalgae from the Antarctic peninsula” (2004)
Active and inactive are the calls of the source. The rule behind the calls is not given here.

Tests used:
Assay type in all cases: functional
Candida albicans = assay: Antimicrobial activity against Candida albicans 54 at 200 ug/spot after 18 hrs by agar diffusion method
Staphylococcus aureus [1] = assay: Antibacterial activity against methicillin-resistant Staphylococcus aureus 310 at 200 ug/spot after 18 hrs by agar diffusion method
Enterococcus faecium = assay: Antibacterial activity against vancomycin-resistant Enterococcus faecium 379 at 200 ug/spot after 18 hrs by […]
Staphylococcus aureus [2] = assay: Antibacterial activity against methicillin-sensitive Staphylococcus aureus 375 at 200 ug/spot after 18 hrs by agar diffusion method
Escherichia coli = assay: Antibacterial activity against permeability mutant Escherichia coli 389 at 200 ug/spot after 18 hrs by agar diffusion method

| Compound | inhibition zone (IZ) (Candida albicans) [mm] | inhibition zone (IZ) (Staphylococcus aureus [1]) [mm] | inhibition zone (IZ) (Enterococcus faecium) [mm] | inhibition zone (IZ) (Staphylococcus aureus [2]) [mm] | inhibition zone (IZ) (Escherichia coli) [mm] | Activity (Staphylococcus aureus [1]) | Activity (Staphylococcus aureus [2]) | Activity (Escherichia coli) | Activity (Candida albicans) | Activity (Enterococcus faecium) |
| --- | --- | --- | --- | --- | --- | --- | --- | --- | --- | --- |
| C[C@@](Cl)(/C=C/Br)[C@H]1CO[C@@](C)(O)[C@@H](Br)C1 | 8 |  |  |  |  |  |  |  |  |  |
| CCC[C@@H](OC(C)=O)C1=C(Br)/C(=C\Br)OC1=O [ACETOXYFIMBROLIDE] | 17 | 25 | 16 | 24 | 9 |  |  |  |  |  |
| CC(C)(Br)[C@@H](Cl)C[C@H](Br)[C@](C)(Cl)/C=C/Br [ANVERENE] |  |  | 8 |  |  | inactive | inactive | inactive | inactive |  |
| CCCCC1=C(Br)/C(=C\Br)OC1=O [FIMBROLIDE] |  | 7 |  | 7 |  |  |  | inactive | inactive | inactive |
| CCC[C@@H](O)C1=C(Br)/C(=C\Br)OC1=O [HYDROXYFIMBROLIDE] | 25 | 23 | 14 | 23 | 9 |  |  |  |  |  |
| CC1=CC(=O)C=C(C/C=C(\C)CC/C=C(\C)CC/C=C(\C)CC/C=C(\C)C(=O)O)C1=O [MENZOQUINONE] |  | 8 | 7 | 6 |  |  |  |  |  |  |
